Experimental data taken from patent US20080161330A1, “Pyrimidines as Igf-I Inhibitors” (ASTRAZENECA AB, priority 2005, published 2008).
Where two headings read alike, the source gives them in different places.

System: murine fibroblasts (NIH3T3) over-expressing human IGF-1 receptor
Test: Inhibition of IGF-stimulated cell proliferation (BrdU incorporation), Test (c)
Type: cell-based
Method: The construction of murine fibroblasts (NIH3T3) over-expressing human IGF-1 receptor has been described by Lammers et al (EMBO J, 8, 1369-1375, 1989). These cells show a proliferative response to IGF-I which can be measured by BrdU incorporation into newly synthesised DNA. Compound potency was determined as causing inhibition of the IGF-stimulated proliferation in the following assay:
Compounds are initially dissolved in DMSO to 10 mM, followed by dilutions in DMEM+1% FCS+glutamine to give a range from […] in 1-0.00045% DMSO final concentration in assay well.
Exponentially growing NIH3T3/IGFR cells were harvested and seeded in complete growth medium into a flat-bottomed 96 well tissue culture grade plate (Costar 3525) at 1.2×10^4 cells per well in a volume of 100 μl.
Growth medium was carefully removed from each well using a multi-channel pipette. Wells were carefully rinsed three times with 200 μl with HBSS. […] of starvation medium was added to each well and the plate was re-incubated for 24 hours.
50 μl of a 4× concentrate of test compound was added to appropriate wells. Cells were incubated for 30 minutes with compound alone before the addition of IGF. […]
The incorporation of BrdU in the cells (after a 4 h incorporation period) was assessed using the BrdU Cell Proliferation Elisa according to the manufacturer's protocol.

SMILES	IC50	IC50 (Mus musculus)
Cc1cc(Nc2nc(N3C[C@H](O)C[C@H]3c3cc(-c4ccccn4)no3)ncc2Cl)n[nH]1 [Example 3, 5-Chloro-2-{(2S4R)-4-hydroxy-2-[3-(pyrid-2-yl)isoxazol-5-yl]pyrrolidin-1-yl}-4-(5-methyl-1H-pyrazol-3-ylamino)pyrimidine]	0.8 µM	
Cc1cc(Nc2nc(N3C[C@@H](O)C[C@H]3c3cc(-c4ccccn4)no3)ncc2Cl)n[nH]1 [Example 4, 5-Chloro-2-[(2S,4S)-4-hydroxy-2-[3-(pyrid-2-yl)isoxazol-5-yl]pyrrolidin-1-yl]-4-(5-methyl-1H-pyrazol-3-ylamino)pyrimidine]		0.93 µM
